The numbers were not newly measured in US20060080073A1, “Three-dimensional structural activity correlation method” (priority 2002, published 2006), which cites them from elsewhere.

SMILES strings stand for the structures.

This data set deals with T1, human corticosteroid-binding globulin (Homo sapiens, UniProt P08185).
T1 sequence (P08185 23-405): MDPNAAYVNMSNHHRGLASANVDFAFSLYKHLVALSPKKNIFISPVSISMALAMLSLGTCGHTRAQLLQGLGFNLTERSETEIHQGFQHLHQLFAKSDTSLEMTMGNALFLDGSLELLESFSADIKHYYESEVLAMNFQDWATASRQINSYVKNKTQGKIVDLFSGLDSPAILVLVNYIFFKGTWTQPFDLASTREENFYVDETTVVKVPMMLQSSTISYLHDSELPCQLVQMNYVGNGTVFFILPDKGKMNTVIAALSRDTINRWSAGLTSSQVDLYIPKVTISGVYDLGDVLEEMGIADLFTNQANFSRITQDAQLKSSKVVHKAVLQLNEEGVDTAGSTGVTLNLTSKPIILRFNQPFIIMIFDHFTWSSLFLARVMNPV
The following applies: steroid derivatives disclosed by Cramer et al. (CoMFA benchmark); values given as negative logarithmic numbers, no unit.
`CC(=O)[C@H]1CC[C@H]2[C@@H]3CC=C4C[C@@H](O)CC[C@]4(C)[C@H]3CC[C@]12C` [pregnenolone]: the “Binding affinity to human corticosteroid-binding globulins (CBG)” value (“Binding affinity” below) was −5.255. For the compound `C[C@]12CCC(O)CC1CC[C@@H]1[C@@H]2CC[C@]2(C)C(O)CC[C@@H]12` (stereo partly drawn) [androstandiol], the “Binding affinity” value is given as −5.000. As to `C[C@]12CCC(=O)C=C1CC[C@@H]1[C@@H]2CC[C@@]2(C)[C@H]1CC[C@]2(O)C(=O)CO` [deoxycortisole], the “Binding affinity” value is −7.881. As to `C[C@]12CC[C@@H](O)C[C@@H]1CC[C@@H]1[C@@H]2CC[C@]2(C)C(=O)CC[C@@H]12` [androsterone], the “Binding affinity” value is listed as −5.613. As to `CC(=O)[C@H]1CC[C@H]2[C@@H]3CCC4=CC(=O)CC[C@]4(C)[C@H]3CC[C@]12C` [progesterone], the “Binding affinity” value was −7.380. Regarding `C[C@]12CCC(=O)C=C1CC[C@@H]1[C@@H]2[C@@H](O)C[C@@]2(C)[C@H]1CC[C@]2(O)C(=O)CO` [cortisol], the “Binding affinity” value is given as −7.881. Consider `CC(=O)[C@@]1(O)CC[C@H]2[C@@H]3CC[C@@H]4C[C@H](O)CC[C@]4(C)[C@H]3CC[C@@]21C` [hydroxy pregnenolone], for which the “Binding affinity” value is −5.000.

Consider `C[C@]12CC[C@@H]3c4ccc(O)cc4CC[C@H]3[C@@H]1C[C@@H](O)[C@@H]2O` [estriol], for which the “Binding affinity” value was −5.000. For the compound `C[C@]12CC[C@H](O)CC1=CC[C@@H]1[C@@H]2CC[C@]2(C)C(=O)CC[C@@H]12` [dehydroepiandrosterone], the “Binding affinity” value was −5.000.

For `C[C@]12CC[C@H]3[C@@H](CCC4=CC(=O)CC[C@@]43C)[C@@H]1CC[C@@H]2C(=O)CO` [deoxycorticosterone], the “Binding affinity” value is reported as −7.653.

For the compound `C[C@]12CCC(=O)C=C1CC[C@@H]1[C@@H]2[C@@H](O)C[C@]2(C=O)[C@@H](C(=O)CO)CC[C@@H]12` [aldosterone], the “Binding affinity” value was −6.279.

For `C[C@]12CC[C@@H](O)C[C@H]1CC[C@@H]1[C@@H]2CC[C@]2(C)C(=O)CC[C@@H]12` [etiocholanolone], the “Binding affinity” value is −5.255. For the compound `C[C@]12CCC(=O)C[C@@H]1CC[C@@H]1[C@@H]2CC[C@]2(C)[C@@H](O)CC[C@@H]12` [dihydrotestosterone], the “Binding affinity” value is reported as −5.919. As to `C[C@]12CC[C@H]3[C@@H](CCC4=CC(=O)CC[C@@]43C)[C@@H]1CC[C@@H]2O` [teststerone], the “Binding affinity” value is on record as −6.724. Take `C[C@]12C[C@H](O)[C@H]3[C@@H](CCC4=CC(=O)CC[C@@]43C)[C@@H]1CC[C@@H]2C(=O)CO` [corticosterone]: the “Binding affinity” value is −7.881. Turning to `CC(=O)[C@@]1(O)CC[C@H]2[C@@H]3CCC4=CC(=O)CC[C@]4(C)[C@H]3CC[C@@]21C` [hydroxy progesterone], the “Binding affinity” value was −7.740. `C[C@]12CCC(=O)C=C1CC[C@@H]1[C@@H]2CC[C@]2(C)C(=O)CC[C@@H]12` [androstenedione]: the “Binding affinity” value is −5.763. Turning to `C[C@]12CCC(=O)C=C1CC[C@@H]1[C@@H]2C(=O)C[C@@]2(C)[C@H]1CC[C@]2(O)C(=O)CO` [cortisone], the “Binding affinity” value is reported as −6.892.
